Source: paper PMC10959927, “Platinum iodido drugs show potential anti-tumor activity, affecting cancer cell metabolism and inducing ROS and senescence in gastrointestinal cancer cells” (Communications Biology, 2024)
Values joined by “and” are separate entries in the source; they are usually repeats but may differ in a detail not shown here. Equal values may be shown once.

Tests used:
Assay type in all cases: cell-based, human
[1] = test system: AGS cells; assay: Flow cytometry mitochondrial mass and membrane potential (MitoTracker Green / CMXRos); conditions: fold change vs C, replicates
Protocol: (§1) We used flow cytometry to study the mitochondrial mass, mitochondrial membrane potential (ΔΨm) and cellular senescence of untreated and treated cells. Cells (5 × 10^4) were seeded in 24-multiwell dishes and cultured overnight. […] Cells were tripsinized, stained with Mitoprobes and resuspended in Flow buffer [1X PBS; 3% Fetal Bovine Serum (v/v); 3 mM EDTA (v/v)] before analysis with a 4-laser Attune NxT Acoustic Cytometer (Thermo Fisher Scientific). For Mitoprobe assays, […] DAPI (Sigma) was used to exclude dead cells. Data were analyzed with FlowJo 9.3 software (Tree Star Inc., Ashland, OR). For mitochondrial mass and ΔΨm measurement, Mitotracker Green (MTGreen, M7514, Invitrogen) and Mitotracker Red CMXRos (CMXROS, M7512, Invitrogen) were used, respectively. Probes were incubated with cells for 30 min at 37 °C at a concentration of 100 nM (MTGreen) and 20 nM (CMXROS), and fluorescence was detected using the filters (Ex488nm/Em530/30) BL1 and (Ex561nm/Em585/16) YL1, respectively. To determine mitochondria functionality, the ratio between ΔΨm (MitoTracker Red CMXRos) versus Mit. Mass (MitoTracker Green) was calculated. The gating strategy used in all the Flow Cytometry experiments is reflected in Fig.S10.

[2] = test system: MKN45 cells; assay: as above
Protocol: as §1

[3] = test system: PANC1 cells; assay: as above
Protocol: as §1

[4] = test system: AGS cells; assay: Western blotting (p-p53, p-JNK, p-p38, p-ERK, p-CHK1/2, Mcl1, BID, BAX); conditions: for fold change p-ERK vs Tubulin / fold change p-JNK vs Tubulin / fold change p-p38 vs Tubulin / fold change p-p53 vs Tubulin: Fig. 4A, replicate values; for fold change BID full length vs Tubulin / fold change MCL1 vs Tubulin: Fig. S3B
Protocol: (§2) Total protein extracts were obtained by adding the lysis buffer: 25 mM HEPES pH 7.5, 0.3 M NaCl, 1.5 mM MgCl2, 0.2 mM EDTA, 0.5 mM DTT, 20 mM β-glicerophosphate, 0.1 mM Na3VO4, 0.1% triton X-100; in the presence of protease inhibitors. Twenty μg of protein per sample were loaded and resolved using 8%, 10% or 15% SDS-PAGE polyacrylamide gels, and then transferred onto PVDF membranes, followed by immunodetection using appropriate antibodies, purchased from Santa Cruz Technology: Mcl-1 (sc-819), Cell Signaling Technology: BIM, BID, BAX (#9942), p-p38 (1:2000, #4631), p-p53^ser15 (#9284), p-ERK1/2 (1:2000, #9106), p-CHK1^ser345 and p-CHK2^ser19 (#9931), Promega Corporation-Spain: p-JNK (#V7932), or Sigma-Aldrich: α-tubulin (1:10000, #TP026). Unless indicated, all antibodies were diluted 1:1000. Secondary antibodies conjugated with horseradish peroxidase were purchased from BioRad, and chemiluminescence detection was performed using ECL (Santa Cruz Biotechnology).

[5] = test system: PANC1 cells; assay: as above; conditions: for fold change p-ERK vs Tubulin / fold change p-JNK vs Tubulin / fold change p-p38 vs Tubulin / fold change p-p53 vs Tubulin: PANC1, Fig. 4A, replicate values
Protocol: as §2

[6] = test system: AGS cells; assay: Ratio GSH/GSSG, colorimetric kit
Protocol: (§3) GSH and GSSG levels were determined in AGS and PANC1 cells after 3 and 24 h of treatment with the compounds (using H2O2 as a positive control) with the Glutathione Colorimetric Detection Kit (ThermoFisher) following the manufacturer’s instructions. Thirty minutes after adding the Colorimetric Detection Reagent and the Reaction Mixture, the absorbance was read at 405 nm. A standard curve was generated with each assay to interpolate the sample results. To measure GSSG, standards and samples must be diluted with the Sample Diluent containing 2-vinylpyridine.

[7] = test system: PANC1 cells; assay: Ratio GSH/GSSG, colorimetric kit
Protocol: as §3

[8] = test system: MKN45 cells; assay: SA-β-Gal activity, CellEvent Senescence Green flow cytometry;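 note: IC50 concentration of each compound relative to untreated control set as 1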; conditions: Fig. 3A, replicate values
Protocol: SA-β-Gal activity was measured following two different approaches. (i) AGS, MKN45 and PANC1 cells (5 × 10^4) were seeded in 24-multiwell dishes and incubated overnight. […] For flow cytometry cell senescence detection, cells were tripsinized, fixed for 15 min with PFA 4% and stained with the CellEvent Senescense Green Flow Cytometry Assay Kit (C10840, Invitrogen) according to manufacturer’s instructions. CellEvent Senescense Green Probe was used at a 1:500 dilution and fluorescence was detected using the filter (Ex488nm/Em530/30) BL1 with a 4-laser Attune NxT Acoustic Cytometer (Thermo Fisher Scientific). […] After 3 h, the treatments were removed, new supplemented medium was added, and cells were incubated for an additional 24 h. Finally, SA-β-Gal staining was performed using the Senescence Cells Histochemical Staining Kit (CS0030-1KT) according to the manufacturer’s instructions.

[9] = MKN45, fold change vs C, replicates
[10] = PANC1, fold change vs C, replicates

## CC(C)[NH][Pt@SP3]([I])([I])[NH]C(C)C [I5, trans-[PtI2(isopropylamine)2]]
[1]
  Fold change %CMXROS, ΔΨm: 0.96 and 0.93 and 0.85
  Fold change %MTGreen, MM: 1.08 and 1.04 and 1.0618
[2]; MKN45, IC50 doses 24 h, CMX-ROS/MitoGreen ratio vs untreated 1.0
  Fold change ΔΨm/MM: 0.47 and 0.42 and 0.46
[2]; [9]
  Fold change %CMXROS, ΔΨm: 0.4 and 0.35 and 0.72
  Fold change %MTGreen, MM: 0.86 and 0.82 and 1.11
[3]; PANC1, IC50 doses 24 h, CMX-ROS/MitoGreen ratio vs untreated 1.0
  Fold change ΔΨm/MM: 0.46 and 0.55 and 0.5
[3]; [10]
  Fold change %CMXROS, ΔΨm: 1.17 and 1.2 and 1.05
  Fold change %MTGreen, MM: 2.17 and 2.54 and 2.28
[4]; IC50, 1, 3, 6 and 24 h
  activation of p53 (p-p53 western blot): did not activate p53
[4]; IC50, 1, 3, 6 or 24 h
  phosphorylation of CHK1/2 (DDR pathway, western blot): did not activate
[4]; Time 1 h
  fold change p-ERK vs Tubulin: 3.337 fold change and 2.237 fold change and 6.03 fold change
  fold change p-JNK vs Tubulin: 3.178 fold change and 2.647 fold change and 2.394 fold change
  fold change p-p38 vs Tubulin: 1.6079 fold change and 2.911 fold change and 3.19 fold change
  fold change p-p53 vs Tubulin: 0.8674 fold change and 0.8424 fold change and 1.7105 fold change
[4]; Time 3 h
  fold change p-ERK vs Tubulin: 6.263 fold change and 7.52 fold change and 5.909 fold change
  fold change p-JNK vs Tubulin: 3.912 fold change and 2.163 fold change and 1.799 fold change
  fold change p-p38 vs Tubulin: 0.8627 fold change and 3.016 fold change and 3.496 fold change
  fold change p-p53 vs Tubulin: 0.5433 fold change and 0.6274 fold change and 1.359 fold change
[4]; Time 6 h
  fold change p-ERK vs Tubulin: 3.858 fold change and 7.71 fold change and 6.1 fold change
  fold change p-JNK vs Tubulin: 2.706 fold change and 2.4308 fold change and 2.197 fold change
  fold change p-p38 vs Tubulin: 1.573 fold change and 3.845 fold change and 3.365 fold change
  fold change p-p53 vs Tubulin: 0.4994 fold change and 0.627 fold change and 1.555 fold change
[4]; Time 24 h
  fold change p-ERK vs Tubulin: 3.8691 fold change and 7.1 fold change and 5.002 fold change
  fold change p-JNK vs Tubulin: 3.2721 fold change and 2.291 fold change and 2.816 fold change
  fold change p-p38 vs Tubulin: 3.758 fold change and 3.606 fold change and 2.16 fold change
  fold change p-p53 vs Tubulin: 0.7787 fold change and 0.8882 fold change and 1.672 fold change
[4]; time 1 h
  fold change BID full length vs Tubulin: 0.978 fold change and 1.383 fold change and 0.822 fold change
[4]; time 3 h
  fold change BID full length vs Tubulin: 0.826 fold change and 0.919 fold change and 0.851 fold change
  fold change MCL1 vs Tubulin: 0.354 fold change and 0.557 fold change and 0.657 fold change
[4]; time 6 h
  fold change BID full length vs Tubulin: 0.842 fold change and 0.933 fold change and 0.854 fold change
[4]; time 24 h
  fold change MCL1 vs Tubulin: 1.039 fold change and 1.002 fold change and 0.903 fold change
[5]; PANC1, IC50, 1, 3, 6 and 24 h
  activation of p53 (p-p53 western blot): did not activate p53
[5]; PANC1, IC50, 1, 3, 6 or 24 h
  phosphorylation of CHK1/2 (DDR pathway, western blot): did not activate
[5]; PANC1, time 1 h, Fig. S3B
  fold change BAX vs Tubulin: 1.558 fold change and 0.8186 fold change and 1.264 fold change
[5]; PANC1, time 3 h, Fig. S3B
  fold change BAX vs Tubulin: 1.103 fold change and 1.1737 fold change and 1.2 fold change
[5]; PANC1, time 6 h, Fig. S3B
  fold change BAX vs Tubulin: 1.097 fold change and 1.226 fold change and 1.154 fold change
[5]; PANC1, time 24 h, Fig. S3B
  fold change BAX vs Tubulin: 1.153 fold change and 1.646 fold change and 1.378 fold change
  fold change BID full length vs Tubulin: 0.5478 fold change and 0.965 fold change and 0.596 fold change
  fold change MCL1 vs Tubulin: 1.638 fold change and 3.054 fold change and 2.481 fold change
[5]; Time 1 h
  fold change p-ERK vs Tubulin: 5.052 fold change and 7.4391 fold change and 5.41 fold change
  fold change p-JNK vs Tubulin: 2.895 fold change and 2.7686 fold change and 4.719 fold change
  fold change p-p38 vs Tubulin: 2.229 fold change and 1.109 fold change and 1.075 fold change
  fold change p-p53 vs Tubulin: 0.74 fold change and 1.11 fold change and 0.95 fold change
[5]; Time 3 h
  fold change p-ERK vs Tubulin: 4.573 fold change and 11.3646 fold change and 8.3 fold change
  fold change p-JNK vs Tubulin: 1.5726 fold change and 2.305 fold change and 1.813 fold change
  fold change p-p38 vs Tubulin: 2.01 fold change and 1.474 fold change and 1.299 fold change
  fold change p-p53 vs Tubulin: 0.37 fold change and 1.05 fold change and 0.6 fold change
[5]; Time 6 h
  fold change p-ERK vs Tubulin: 3.1087 fold change and 13.4172 fold change and 7.72 fold change
  fold change p-JNK vs Tubulin: 2.264 fold change and 2.75 fold change and 2.02 fold change
  fold change p-p38 vs Tubulin: 1.737 fold change and 1.3292 fold change and 1.51 fold change
  fold change p-p53 vs Tubulin: 0.46 fold change and 1.28 fold change and 0.68 fold change
[5]; Time 24 h
  fold change p-ERK vs Tubulin: 0.9081 fold change and 11.3435 fold change and 3.15 fold change
  fold change p-JNK vs Tubulin: 0.7671 fold change and 1.164 fold change and 1.094 fold change
  fold change p-p38 vs Tubulin: 1.276 fold change and 1.422 fold change and 1.33 fold change
  fold change p-p53 vs Tubulin: 0.81 fold change and 1.22 fold change and 0.52 fold change
[6]; AGS, 3, relative to Control = 1
  GSH/GSSG: 0.9172 and 0.9228 and 0.9268
[6]; AGS, 24, relative to Control = 1
  GSH/GSSG: 0.5757 and 0.62 and 0.7864
[7]; PANC1, 3, relative to Control = 1
  GSH/GSSG: 0.746 and 0.7881 and 0.8512
[7]; PANC1, 24, relative to Control = 1
  GSH/GSSG: 0.8241 and 0.8337 and 0.9592
[8]
  Fold change % Senescence: 6.84 fold change and 6.77 fold change and 7.76 fold change
